According to patent publication US9447116B2, “Inhibitors of HIV replication” (priority 2010, dated 2016):

Key:
[1] = test system: HIV-1 virus (NL4.3 strain); assay: MT-2 based antiviral assay (S8737E); format: cell-based; conditions: Human immunodeficiency virus 1, 72 h, read-out: Antiviral Activity (S8737E, μM), HIV-1 NL4.3 replication in MT2 cells, 3 days, β-Gal readout in JC53BL cells
Excerpt: MT-2 Based Antiviral Assay (S8737E)
This assay is designed to determine the effects of small molecules on the replication of HIV-1 in the lymphobastoid cell line, MT2, and is able to detect the antiviral effect of compounds acting at any stage of the HIV-1 replication cycle. The assay, along with its associated cytotoxicity assay, was described in detail in 2005 in a paper by Cao et al (Antimicrobial Agents and Chemotherapy 2005; 49(9), p 3833-3841).
MT2 cells are infected with the HIV-1 virus (NL4.3 strain; Adachi et al., Journal of Virology 1986) and transferred to assay plates containing serial dilutions of compounds to be tested. The assay plates are incubated for 3 days (MT2) to allow for several rounds of viral replication/infection to take place. At the end of this time, supernatant is transferred into new plates containing JC53BL cells.
JC53BL cells express CXCR4, CCR5 and CD4 receptors, and HIV-1-LTR-β-Gal. Under normal culture conditions undetectable levels of β-Galactosidase are expressed, but in the presence of HIV-1, the viral Tat protein is able to activate the HIV-1-LTR in the JC53BL cells resulting in the increased expression of the β-Gal enzyme. The expression can be measured using the ‘FluorAce β-Galactosidase reporter’ assay. The levels of β-Gal are directly proportional to the levels of Tat (up to a threshold) allowing virus quantification. Compounds that inhibit virus replication will give rise to a reduced signal and a dose-response curve for each compound can be generated. This is then used to determine the IC50 for each compound, a measure of the compound's potency.

[2] = target: T1, LEDGF-Integrase interaction (Human immunodeficiency virus type 1 group M subtype B, UniProt P12497); assay: HTRF Interaction assay (S9118); parameters: species or system HIV; conditions: His6-tagged integrase and MBP-LEDGF integrase binding domain
T1 construct: His6-tagged integrase (78 nM final concentration); purchased Prof; Zeger Debyser, Katholieke Universiteit Leuven (supplied by an academic laboratory, not a commercial vendor)
Excerpt: • Adachi, A., Gendelman, H., Koenig, S., Folks, T., Wiley, R., Rabson, A. and Martin, M (1986) Production of acquired immunodeficency syndrome-associated retrovirus in human and nonhuman cells transfected with an infectious molecular clone, J. Virol., 59, 284-291. • Cao J, Isaacson J, Patick A K, Blair W S. (2005) High-throughput human immunodeficiency virus type 1 (HIV-1) full replication assay that includes HIV-1 Vif as an antiviral target Antimicrobial Agents and Chemotherapy; 49(9), p 3833-3841. Assay to Measure the LEDGF-Integrase Integration Inhibitory Activity of Compounds of the Invention HTRF Interaction Assay (S9118)
An Homogeneous Time Resolved Fluorescence (HTRF) assay is performed in a manner similar to previous reports on HTRF protein assays as reviewed by Mathis (Clin. Chem., 2005). The assay procedure is performed as follows: reactions are performed in 20 μl final volume in 384-well black low volume microtiter plates (Greiner). The final reaction buffer contains 29 mM phosphase buffer (pH 7), 10 mM HEPES buffet (pH 7.4), 68.5 mM NaCl, 1.4 mM KCl, 400 mM KF 0.05% (w/v) pluronic acid (P104, Sigma Aldrich) and 1% (v/v) DMSO. His6-tagged integrase (78 nM final concentration) is incubated with […] fused to the Δ325 carboxy terminal integrase binding domain of LEDGF in the presence of compound for 2 hours at room temperature. Both these protein regents are supplied by Prof. Zeger Debyser of Katholleke Universiteit Leuven, Leuven, Belgium. The compounds are added at varying concentrations spanning a wide range from 0.1 up to 100 μM. Afterwards 8.3 nM of europium cryptate conjugated anti-MBP monoclonal antibody and 17 nM anti-His antibody conjugated with the acceptor fluorophore d2. Following a 2 hour room temperature incubation the plates are read on an EnVision™ microplate reader (Perkin Elmer) using an excitation wavelength of 320 nm. The ratio of fluorescence emitted at […] is used to assess the degree to which the protein-protein interaction had been inhibited.

SMILES | IC50 [1] [µM] | IC50 [2] [nM]
Cc1nc2sc3c(c2c(-c2ccc(Cl)cc2F)c1[C@H](OC(C)(C)C)C(=O)O)CCCC3 [Example 45, (2S)-tert-butoxy[4-(4-chloro-2-fluorophenyl)-2-methyl-5,6,7,8-tetrahydro[1]benzothieno[2,3-b]pyridin-3-yl]acetic acid] | 0.023 | 565
Cc1ccc(-c2c([C@H](OC(C)(C)C)C(=O)O)c(C)nc3sc4c(c23)CCCC4)c(F)c1 [Example 47, (2S)-tert-butoxy[4-(2-fluoro-4-methylphenyl)-2-methyl-5,6,7,8-tetrahydro[1]benzothieno[2,3-b]pyridin-3-yl]acetic acid] | 0.071 | 657
Cc1nc2sc3c(c2c(-c2ccc(C(F)F)cc2)c1[C@H](OC(C)(C)C)C(=O)O)CCCC3 [Example 49] | 0.081 | 11000
Cc1nc2sc3c(c2c(-c2ccc(C(F)(F)F)cc2)c1[C@H](OC(C)(C)C)C(=O)O)CCCC3 [Example 50, (S)-2-(tert-butoxy)-2-(2-methyl-4-(4-(trifluoromethyl)phenyl)-5,6,7,8-tetrahydrobenzo[4.5]thieno[2,3-b]pyridin-3-yl)acetic acid] | 0.055 | 1500
Cc1nc2sc3c(c2c(-c2ccc(Br)cc2)c1[C@H](OC(C)(C)C)C(=O)O)CCCC3 [Example 51, (S)-2-(4-(4-bromophenyl)-2-methyl-5,6,7,8-tetrahydrobenzo[4,5]thieno[2,3-b]pyridin-3-yl)-2-(tert-butoxy)acetic acid] | 0.08 | 1160
Cc1ccc(-c2c(C(OC(C)(C)C)C(=O)O)c(C)nc3sc4c(c23)CCOC4)cc1 (stereo not drawn) [Example 52, Tert-Butoxy-(2-methy-4-p-tolyl-5,8-dihydro-6H-7-oxa-9-thia-1-aza-fluoren-3-yl)-acetic acid] | 0.189 | 2750
